Patent publication US20030022821A1, “Bioactive peptides” (priority 1998, published 2003)
Converted amounts (≈) assume the structure as drawn. Read-outs that look alike come from different tables or passages of the source. Square brackets hold non-standard residues; d marks the D form. Ends that are not written are not given here. Peptide text beside a SMILES is read from it. * marks the point of attachment. Trp(2-Pmc) = Cc1c(C)c(S(=O)(=O)c2[nH]c3ccccc3c2C[C@H](N)C(=O)O)c(C)c2c1OC(C)(C)CC2; Fmoc = O=C(OCC1c2ccccc2-c2ccccc21)*; Acm = CC(=O)NC*

Tests used:
[1] = test system: Escherichia coli ATCC 25922; type: cell-based
Procedure, shortened: (§1)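 Bacteria in mid-log phase, grown in 2% Bacto Peptone water, were tested by standard microdilution in 1% Bacto Peptone water at an inoculum of 2×10^6 CFU/ml. Runs were in triplicate, and peptide concentration in the wells was checked by HPLC.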

[2] = test system: Staphylococcus aureus ATCC 25923; type: cell-based
Procedure, shortened: as §1

[3] = test system: human red blood cells; assay: Hemolytic assay; type: cell-based
[4] = test system: Meth A cells (murine sarcoma cell line); assay: Cytotoxicity on Meth A cells, MTT method
Description: Peptide solutions (0.1 ml) were added and the plates incubated at 37° C. for 30 minutes, 4 hours or 24 hours. The cytotoxicity was measured using the MTT method (Mosmann et al., J. Immunol. (1986) 136, 2348-2357).
Cells in the growth phase were harvested and washed in fresh medium and injected subcutaneously into the abdominal region of the mice.
The cytotoxic effect of the peptides on different murine and human tumor cells were measured using the MTT method (Mosmann et al., J. Immunol. (1986) 136, 2348-2357). MTT is a soluble tetrazolium salt yielding a yellow solution when prepared in media or salt solutions lacking phenol red. Dissolved MTT is converted to an insoluble purple formazan by cleavage of the tetrazolium ring by dehydrogenase enzymes. This water insoluble formazan can be solubilized using isopropanol or other solvents and the dissolved material is measured spectrophotometrically. The absorbance was measured as a function of concentration of converted dye.
Cells were maintained in […] medium containing 10% FBS, 1% L-glutamine and 0.1% penicillin and streptomycin. Cells to be used in the assay were grown to confluency, trypsinated and split to single cell suspension, counted and centrifuged at 1500 rpm for 10 min. […][…] of cell suspension was transferred to each well on a 96-well microtiter plate. The cells were stimulated by adding […] of various concentrations of peptides diluted with assay medium to each well. The final concentrations of peptide were for example: 5, 10, 20, 40, 60, 80, 100, and 200 mg/ml. […] As a negative control only medium was added to the cells, and as a positive control (100% killing) 1% triton X-100 was added. Following an incubation period of 4 h., 20 ml MTT dissolved in PBS at a concentration of 5 mg/ml was added to each well, and the plate was incubated further for 2 h. 130 ml of the supernatant were then removed and […] acid alcohol (0.04-0.1 N HCl in isopropanol) added to each well to dissolve the dark blue crystals. The plate was placed on a shaker for 1 h and read spectrophotometrically at 590 nm in a microtiterplate reader using the Softmaxâ program.

[5] = test system: normal fibroblasts; type: cell-based
[6] = read-out: MethA IC 50, Table 7, peptide required to kill 50% of MethA cells

Row | MIC E. coli ([1]; ATCC 25922) [µg/mL] | MIC S. aureus ([2]; ATCC 25923) [µg/mL] | Compound | EC50 ([3]; red cells of human) [µM] | IC50 ([4]; 4 h) [µM] | % Hemolysis 10 μg/ml ([3]; red cells of human) [%] | % Hemolysis 100 μg/ml ([3]; red cells of human) [%] | other results
1 | 20 (≈ 8.8 µM) | 2.5 (≈ 1.1 µM) | CSCC[C@H](NC(=O)[C@H](CCCNC(=N)N)NC(=O)[C@H](Cc1c[nH]c2ccccc12)NC(=O)[C@H](C)NC(=O)[C@H](Cc1c[nH]c2ccccc12)NC(=O)[C@H](CCCNC(=N)N)NC(=O)[C@H](CCCNC(=N)N)NC(=O)[C@H](C)NC(=O)[C@H](CCCCN)NC(=O)[C@H](Cc1ccccc1)NC(=O)[C@H](Cc1c[nH]c2ccccc12)NC(=O)[C@H](C)NC(=O)[C@@H]1CCCN1)C(=O)N[C@@H](CCCCN)C(=O)N[C@@H](CCCCN)C(=O)N[C@@H](CC(C)C)C(=O)N[C@@H](C)C(=O)N[C@@H](C)C(=O)O [LFB 14-31 A2,6, 10, 17] | > 440 | 165 | – | – | EC50 ([4]; 4 h): 165 µM; IC50 [4, 6]: 165 µM
2 | 5 (≈ 2.92 µM) | 10 (≈ 5.85 µM) | CSCC[C@H](NC(=O)[C@H](CCCNC(=N)N)NC(=O)[C@H](Cc1c[nH]c2ccccc12)NC(=O)[C@H](CCC(N)=O)NC(=O)[C@H](Cc1c[nH]c2ccccc12)NC(=O)[C@H](CCCNC(=N)N)NC(=O)[C@H](CCCNC(=N)N)NC(=O)OCC1c2ccccc2-c2ccccc21)C(=O)N[C@@H](CCCCN)C(=O)N[C@@H](CCCCN)C(=O)N[C@@H](CC(C)C)C(=O)O [LFB 20-29 FMOC] (Fmoc-RRWQWRMKKL-OH) | – | – | 10.3 | 28.2 | MethA IC50 ([4]; 4 h): 140 µg/mL
3 | – | – | CSCC[C@H](NC(=O)[C@H](CCCNC(=N)N)NC(=O)[C@H](C)NC(=O)[C@H](CCC(N)=O)NC(=O)[C@H](Cc1c(S(=O)(=O)c2c(C)c(C)c3c(c2C)CCC(C)(C)O3)[nH]c2ccccc12)NC(=O)[C@H](CCCNC(=N)N)NC(=O)[C@H](CCCNC(=N)N)NC(=O)[C@H](CSCNC(C)=O)NC(=O)[C@H](CCCCN)NC(=O)[C@H](Cc1ccccc1)NC(=O)OCC1c2ccccc2-c2ccccc21)C(=O)N[C@@H](CCCCN)C(=O)N[C@@H](CCCCN)C(=O)N[C@@H](CC(C)C)C(=O)NCC(=O)N[C@@H](C)C(=O)O [LFB A8 FMOC PMC] (Fmoc-FKC(Acm)RR[Trp(2-Pmc)]QARMKKLGA-OH) | – | – | 6.75 | 45.4 | concentration killing Meth A tumor cells ([4]; after 4 hours incubation): 50 µg/mL; concentration killing Meth A tumor cells ([4]; after ½ hour incubation): higher than 100 μg/ml
4 | 60 (≈ 27.6 µM) | 10 (≈ 4.6 µM) | CSCC[C@H](NC(=O)[C@H](CCCNC(=N)N)NC(=O)[C@H](C)NC(=O)[C@H](CCC(N)=O)NC(=O)[C@H](Cc1c[nH]c2ccccc12)NC(=O)[C@H](CCCNC(=N)N)NC(=O)[C@H](CCCNC(=N)N)NC(=O)[C@H](CSCNC(C)=O)NC(=O)[C@H](CCCCN)NC(=O)[C@H](Cc1ccccc1)NC(=O)OCC1c2ccccc2-c2ccccc21)C(=O)N[C@@H](CCCCN)C(=O)N[C@@H](CCCCN)C(=O)N[C@@H](CC(C)C)C(=O)NCC(=O)N[C@@H](C)C(=O)O [LFB A8 FMOC] (Fmoc-FKC(Acm)RRWQARMKKLGA-OH) | – | – | 2.87 | 7.79 | killing of Meth A cells ([4]; 250 μg/ml at ½ hour and 4 hours): killed most of the cells
5 | >200 | >200 | CSCC[C@H](NC(=O)[C@H](CCCNC(=N)N)NC(=O)[C@H](C)NC(=O)[C@H](CCC(N)=O)NC(=O)[C@H](Cc1c[nH]c2ccccc12)NC(=O)[C@H](CCCNC(=N)N)NC(=O)[C@H](CCCNC(=N)N)NC(=O)[C@H](CSCNC(C)=O)NC(=O)[C@H](CCCCN)NC(=O)[C@@H](N)Cc1ccccc1)C(=O)N[C@@H](CCCCN)C(=O)N[C@@H](CCCCN)C(=O)N[C@@H](CC(C)C)C(=O)NCC(=O)N[C@@H](C)C(=O)O [LFB A8] (H-FKC(Acm)RRWQARMKKLGA-OH; N-terminus assumed) | – | – | 2.8 | 3.45 | MethA IC50 ([4]; 4 h): 500 µg/mL
6 | – | – | CSCC[C@H](NC(=O)[C@H](CCCNC(=N)N)NC(=O)[C@H](Cc1c[nH]c2ccccc12)NC(=O)[C@H](CCC(N)=O)NC(=O)[C@H](Cc1c(S(=O)(=O)c2c(C)c(C)c3c(c2C)CCC(C)(C)O3)[nH]c2ccccc12)NC(=O)[C@H](CCCNC(=N)N)NC(=O)[C@H](CCCNC(=N)N)NC(=O)[C@H](CSCNC(C)=O)NC(=O)[C@H](CCCCN)NC(=O)[C@@H](N)Cc1ccccc1)C(=O)N[C@@H](CCCCN)C(=O)N[C@@H](CCCCN)C(=O)N[C@@H](CC(C)C)C(=O)NCC(=O)N[C@@H](C)C(=O)O [LFB PMC6] | – | – | 3.4 | 6 | MIC E. coli ([1]; Table 11): 10 µg/mL (≈ 4.29 µM); MIC S. aureus ([2]; Table 11): 10 µg/mL (≈ 4.29 µM); EC 50 [3]: >1000 µg/mL; EC50 [3]: > 429 µM; MethA IC50 ([4]; 4 h): 148 µg/mL
7 | 18 (≈ 7.72 µM) | 10 (≈ 4.29 µM) | CSCC[C@H](NC(=O)[C@H](CCCNC(=N)N)NC(=O)[C@H](Cc1c(S(=O)(=O)c2c(C)c(C)c3c(c2C)CCC(C)(C)O3)[nH]c2ccccc12)NC(=O)[C@H](CCC(N)=O)NC(=O)[C@H](Cc1c[nH]c2ccccc12)NC(=O)[C@H](CCCNC(=N)N)NC(=O)[C@H](CCCNC(=N)N)NC(=O)[C@H](CSCNC(C)=O)NC(=O)[C@H](CCCCN)NC(=O)[C@@H](N)Cc1ccccc1)C(=O)N[C@@H](CCCCN)C(=O)N[C@@H](CCCCN)C(=O)N[C@@H](CC(C)C)C(=O)NCC(=O)N[C@@H](C)C(=O)O [LFB PMC8] | – | – | 3.6 | 9.79 | MethA IC50 ([4]; 4 h): 150 µg/mL
8 | 5 (≈ 2.32 µM) | 10 (≈ 4.65 µM) | CC(=O)NCSC[C@H](NC(=O)[C@H](CCCCN)NC(=O)[C@@H](N)Cc1ccccc1)C(=O)N[C@@H](Cc1c[nH]c2ccccc12)C(=O)N[C@@H](CCCNC(=N)N)C(=O)N[C@@H](Cc1c[nH]c2ccccc12)C(=O)N[C@@H](CCC(N)=O)C(=O)N[C@@H](Cc1c[nH]c2ccccc12)C(=O)N[C@@H](CCCNC(=N)N)C(=O)N[C@@H](Cc1c[nH]c2ccccc12)C(=O)N[C@@H](CCCCN)C(=O)N[C@@H](CCCCN)C(=O)N[C@@H](CC(C)C)C(=O)NCC(=O)N[C@@H](C)C(=O)O [LFB W4, 10, H2N-Phe-Lys-Cys-Trp-Arg-Trp-Gln-Trp-Arg-Trp-Lys-Lys-Leu-Gly-Ala-COOH] (H-FKC(Acm)WRWQWRWKKLGA-OH) | – | – | 4.45 | 27.8 | MIC E. coli ([1]; Table 6): 5 µg/mL (≈ 2.32 µM); MIC S. aureus ([2]; Table 6, unit assumed): 10 µg/mL (≈ 4.65 µM); Meth A IC50 ([4]; 4 h): 500 µg/mL
9 | – | – | PAKRKAFRWAWRMLKKAA-OH [LFB 14-31A2,6, 10, 17F7K3, 16L14R4] | > 451 | 230 | – | – | IC50 [5]: 230 µM
10 | 10 | 10 | PAWFKAFRWAWRMLKKAA-OH [LFB 14-31 A2,6, 10, 17F7K16L14] | > 440 | – | – | – | IC50 [4, 6]: 28.1 µM
11 | – | – | PAWFKARRWAWRMKK-OH [LFB 14-28 A2,6, 10] | > 438 | > 248 | – | – | –
12 | – | – | PAWFKARRWAWRMKKL-OH [LFB 14-29 A2,6, 10] | > 469 | > 235 | – | – | –
13 | – | – | PAWFKARRWAWRMKKLA-OH [LFB 14-30 A2,6, 10, 17] | > 454 | > 227 | – | – | –
14 | – | – | PAWRKAFRIAIRMLKKAA-OH [LFB 14-31A2,6, 10, 17F7I9, 11K16L14R4] | – | 22 | – | – | IC50 [5]: 26 µM
15 | – | – | PAWRKAFRIAWRMLKKAA-OH [LFB 14-31A2,6, 10, 17F7I9K16L14R4] | – | 12 | – | – | Mic E-coli ([1]; ATCC 25922): 5 µM; Mic S. Aureus ([2]; ATCC 25923): <1 µM; IC50 [5]: 26 µM
16 | – | – | PAWRKAFRWAIRMLKKAA-OH [LFB 14-31A2,6, 10, 17F7I11K16L14R4] | – | 6 | – | – | Mic E-coli ([1]; Table 17): 2/5; Mic S. Aureus ([2]; ATCC 25923): <1 µM; IC50 [5]: 15 µM
17 | 10 | 2.5 | PAWRKAFRWAWRMKKLAA-OH [LFB 14-31 A2,6, 10, 17F7R4] | > 440 | – | – | – | IC50 [4, 6]: 30.2 µM
18 | – | – | PAWRKARRWARRMKKLAA-OH [LFB 14-31 A2,6, 10, 17R4, 11] | > 444 | – | – | – | IC50 [4, 6]: 75.5 µM
19 | 30 | 20 | PAWRKARRWAWRMKKLAA-OH [LFB 14-31 A2,6, 10, 17R4] | > 438 | – | – | – | IC50 [4, 6]: 75.8 µM
20 | >100 | >100 | RRWAWRMKK-OH [LFB 20-28 A4] | – | – | 0 | 1.68 | MethA IC50 ([4]; 4 h): 500 µg/mL
21 | 60 | >100 | RRWQWRMKKL-OH [LFB 20-29] | – | – | 1.75 | 2.74 | MethA IC50 ([4]; 4 h): 500 µg/mL
